The test system of this assay is carrageenan-induced hyperalgesia. Conditions: 0.1 mg/kg, s.c.

Description: Male Sprague-Dawley rats (175-200 g, Harlan Sprague Dawley, Indianapolis, Ind., USA) were housed and cared for in accordance with the guidelines of the Institutional Animal Care and Use Committee and in accordance with NIH guidelines on laboratory animal welfare. Rats received a subplantar injection of carrageenan (0.1 ml of a 1% suspension in 0.85% saline) into the right hind paw. A hyperalgesic response to heat was determined in the animals by Hargreaves' method (Hargreaves et al., 1988). Rats were individually confined and acclimated to Plexiglas chambers for 30 min. A mobile unit consisting of a high intensity projector bulb was positioned to deliver a thermal stimulus directly to an individual hind paw from beneath the chamber. The withdrawal latency period of injected and contralateral paws was determined to the nearest 0.1 sec with an electronic clock circuit and thermocouple. […] Each point will represent the change in withdrawal latency compared with control measurements taken prior to carrageenan injection.

On to `CN1CC[C@]23c4c5ccc(O)c4O[C@H]2[C@@H](O)C=C[C@H]3[C@H]1C5` [morphine], for which the inhibition of hyperalgesia entry was “modest inhibition of hyperalgesia”.

The values are drawn from patent publication US9150837B2, “Polyethylene glycolated superoxide dismutase mimetics” (Galera Therapeutics, LLC, priority 2004, dated 2015).
